Source: ChEMBL document CHEMBL1240309 (Nat Chem Biol, 2006)
Calls of active or inactive are those of the source. The calls are words filed in the database; no cut-off is given here.

How the values were obtained:
Caenorhabditis elegans [1] = test: Antiapoptotic activity against Caenorhabditis elegans ced-3(n2438) mutant assessed as number of extra cells in anterior pharynx at 50 to 250 mM dissolved in soybean oil; assay type: functional, organism-based
Caenorhabditis elegans [2] = test: Antiapoptotic activity against Caenorhabditis elegans ced-4(n2273) mutant assessed as number of extra cells in anterior pharynx L3 and L4 larvae at 250 mM dissolved in soybean oil; assay type: functional, organism-based
Caenorhabditis elegans [3] = test: Antiapoptotic activity against Caenorhabditis elegans ced-3(n2447) S446L mutant assessed as number of extra cells in anterior pharynx L3 and L4 larvae at 250 mM dissolved in soybean oil; assay type: functional, organism-based
Caenorhabditis elegans [4] = test: Antiapoptotic activity against Caenorhabditis elegans ced-3(n2438) G474R mutant assessed as number of extra cells in anterior pharynx L3 and L4 larvae at 250 mM dissolved in soybean oil; assay type: functional, organism-based
Caenorhabditis elegans [5] = test: Antiapoptotic activity against Caenorhabditis elegans ced-9(n1950) mutant assessed as number of extra cells in anterior pharynx L3 and L4 larvae at 250 mM dissolved in soybean oil; assay type: functional, organism-based
[6] = Octanol-water partition coefficient, log P of the compound; assay type: physicochemical
Caenorhabditis elegans [7] = test: Antiapoptotic activity against Caenorhabditis elegans ced-3(n2436) mutant assessed as number of extra cells in anterior pharynx L3 and L4 larvae at 250 mM dissolved in soybean oil; assay type: functional, organism-based
Caenorhabditis elegans [8] = test: Antiapoptotic activity against Caenorhabditis elegans ced-3(n2433) mutant assessed as number of extra cells in anterior pharynx L3 and L4 larvae at 250 mM dissolved in soybean oil; assay type: functional, organism-based
Caenorhabditis elegans [9] = test: Antiapoptotic activity against Caenorhabditis elegans ced-8(n1891) mutant assessed as number of extra cells in anterior pharynx L3 and L4 larvae at 250 mM dissolved in soybean oil; assay type: functional, organism-based

CCCCC(CC)COC(=O)c1ccccc1C(=O)OCC(CC)CCCC (centres undefined)
Activity (Caenorhabditis elegans [1]): inactive

Clc1ccc(Cl)cc1 [1,4-DICHLOROBENZENE]
Activity (Caenorhabditis elegans [2]): Active | Activity (Caenorhabditis elegans [3]): Active | Activity (Caenorhabditis elegans [4]): Active | Activity (Caenorhabditis elegans [5]): Active | logP [6]: 3.5 | Activity (Caenorhabditis elegans [7]): Active | Activity (Caenorhabditis elegans [8]): Active | Activity (Caenorhabditis elegans [9]): Active
